# Laboratory results reported in article PMC10991380, “Cloning, functional expression, and pharmacological characterization of inwardly rectifying potassium channels (Kir) from Apis mellifera” (Scientific Reports, 2024).
# Experiments:
# Experiment in all cases: two-electrode voltage clamp, Xenopus oocytes
# Assay type in all cases: cell-based, Apis mellifera
# Conditions in all cases: 96 mM KCl Ringer, pH 7.6; holding potential -80 mV; VU041 in DMSO
# [1] = tested on: T1, AmKir2.3
# T1 construct: homotetramer; N-terminal tail 31 residues shorter than AmKir2.2
# [2] = tested on: T2, AmKir1.1
# T2 construct: homotetramer; longer N-terminal and shorter C-terminal tail than AmKir2
# [3] = tested on: T3, AmKir2.2
# T3 construct: homotetramer; N-terminal tail 31 residues longer than AmKir2.3
compound,measurement,setting,value
O=C(Cn1nc(C(F)(F)F)c2c1CCCC2)N1CCCc2ccccc21 [VU041],% inhibition at 10^-5 M,[1],24.04 ± 1.92%
same,% inhibition at 10^-4 M,[2],48.94 ± 3.79%
same,% inhibition at 10^-4 M,[3],45.65 ± 5.01%
